In experiment [1] the target is human CB1 receptors (Homo sapiens (Human), UniProt P21554). Put plainly: cAMP assay, CHO cells expressing human CB1 receptors. It is filed as cell-based. The procedure, abridged: (§1)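 Transfected CHO cells were preincubated in Krebs Ringer bicarbonate buffer with 1 mM IBMX for 30 min at 30 °C, then exposed to compound for 30 min at 30 °C. cAMP was measured by time-resolved FRET (730/645 nm) against a standard curve spanning 10 μM to 0.13 nM. EC50 values derived from concentration–response data.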
Background: cAMP levels reflect the balance of adenylyl cyclase and phosphodiesterase activity.

Experiment [2] addresses human CB2 receptors (Homo sapiens (Human), UniProt P34972). Put plainly: cAMP assay, CHO cells expressing human CB2 receptors. It is filed as cell-based. A digest of the protocol:
as §1

Setting [3] is: functional cAMP assay, CHO cells expressing human CB1, read-out: EC50 CB1 human.
Setting [4] is: functional cAMP assay, CHO cells expressing human CB2, read-out: EC50 CB2 human.

Where two headings read alike, the source gives them in different places. Where only a bound is given, the exact number is not on record here.

Data on 32 compounds can be found in patent US10308659B2, “Pyridine derivatives” (Hoffmann-La Roche Inc., priority 2013, dated 2019).

Sequence of human CB2 receptors (P34972 whole entry): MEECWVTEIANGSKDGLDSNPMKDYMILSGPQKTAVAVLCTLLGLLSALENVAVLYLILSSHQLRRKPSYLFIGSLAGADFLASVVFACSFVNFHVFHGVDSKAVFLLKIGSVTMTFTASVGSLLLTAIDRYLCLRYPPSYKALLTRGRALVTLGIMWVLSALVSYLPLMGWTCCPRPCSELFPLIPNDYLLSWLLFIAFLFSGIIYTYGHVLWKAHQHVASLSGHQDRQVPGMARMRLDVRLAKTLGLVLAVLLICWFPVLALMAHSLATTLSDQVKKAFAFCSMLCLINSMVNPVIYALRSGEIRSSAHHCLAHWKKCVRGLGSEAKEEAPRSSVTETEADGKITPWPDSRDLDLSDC
Sequence of human CB1 receptors (P21554 whole entry): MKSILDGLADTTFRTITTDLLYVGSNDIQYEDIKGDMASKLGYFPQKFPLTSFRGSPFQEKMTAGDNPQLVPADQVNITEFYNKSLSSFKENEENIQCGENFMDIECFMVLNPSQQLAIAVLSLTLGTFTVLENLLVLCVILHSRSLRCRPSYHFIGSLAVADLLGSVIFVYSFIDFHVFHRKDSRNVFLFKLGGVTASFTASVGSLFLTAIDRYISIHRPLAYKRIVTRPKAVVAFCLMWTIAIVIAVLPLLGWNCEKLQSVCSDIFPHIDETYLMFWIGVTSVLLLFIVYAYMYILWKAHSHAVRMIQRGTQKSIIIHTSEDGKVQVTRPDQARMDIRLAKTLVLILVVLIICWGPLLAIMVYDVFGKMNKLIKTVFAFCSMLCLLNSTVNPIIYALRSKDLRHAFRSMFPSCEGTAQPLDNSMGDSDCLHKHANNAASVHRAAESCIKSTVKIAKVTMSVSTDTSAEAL

Consider `CC(C)(C)c1nc(-c2cc(OCCN3CCOCC3)c(C3CC3)cn2)no1` [Example 103, 4-[2-[2-(5-tert-butyl-1,2,4-oxadiazol-3-yl)-5-cyclopropylpyridin-4-yl]oxyethyl]morpholine], for which the EC50 (usually the concentration needed to bring the measured effect to its halfway point) is more than 10000 nM in experiment [1] (setting [3]) and 28.9 nM in experiment [2] (setting [4]).
Regarding `CC(C)(C)c1nc(-c2cc(OCC3CCO3)c(C3CC3)cn2)no1` (stereo not shown) [Example 58, 5-tert-butyl-3-[5-cyclopropyl-4-(oxetan-2-ylmethoxy)pyridin-2-yl]-1,2,4-oxadiazole], the EC50 in experiment [1] (setting [3]) is more than 10000 nM; in experiment [2] (setting [4]), 15.6 nM.
As to `c1c(-c2nc(C3CC3)no2)ncc(C2CC2)c1OCC1CC1` [Example 3, 3-cyclopropyl-5-[5-cyclopropyl-4-(cyclopropylmethoxy)pyridin-2-yl]-1,2,4-oxadiazole], the results for the EC50 in experiment [1] (setting [3]) and in experiment [2] (setting [4]) were more than 10000 nM and 1.2 nM, respectively.
With `OC1(c2nc(-c3cc(OCC(F)(F)F)c(N4CC(F)(F)C4)cn3)no2)CC1` [Example 46, 1-[3-[5-(3,3-difluoroazetidin-1-yl)-4-(2,2,2-trifluoroethoxy)pyridin-2-yl]-1,2,4-oxadiazol-5-yl]cyclopropan-1-ol], the figures for the EC50 in experiment [1] (setting [3]) and in experiment [2] (setting [4]) were more than 10000 nM and 180 nM, respectively.
`CC(C)(C)c1nc(-c2cc(N3CCC(O)C3)c(C3CC3)cn2)no1` (stereo not shown) [Example 73, 1-[2-(5-tert-butyl-1,2,4-oxadiazol-3-yl)-5-cyclopropylpyridin-4-yl]pyrrolidin-3-ol]: the EC50 is more than 10000 nM in experiment [1] (setting [3]) and 57.2 nM in experiment [2] (setting [4]).
`FC(F)(F)COc1cc(-c2ncon2)ncc1C1CC1` [Example 39, 3-[5-cyclopropyl-4-(2,2,2-trifluoroethoxy)pyridin-2-yl]-1,2,4-oxadiazole]: the EC50 in experiment [1] (setting [3]) was more than 10000 nM; in experiment [2] (setting [4]) it was 434 nM.
Consider `CCC1(C)N=C(c2cc(OCC(F)(F)F)c(C3CC3)cn2)NC1=O` (stereo not shown) [Example 68, 2-[5-cyclopropyl-4-(2,2,2-trifluoroethoxy)pyridin-2-yl]-4-ethyl-4-methyl-1H-imidazol-5-one], for which the EC50 in experiment [1] (setting [3]) was more than 10000 nM; in experiment [2] (setting [4]) it was 72.6 nM.
As to `CCC1(CC)COC(c2cc(OCC(F)(F)F)c(C3CC3)cn2)=N1` [Example 27, 2-[5-cyclopropyl-4-(2,2,2-trifluoroethoxy)pyridin-2-yl]-4,4-diethyl-5H-1,3-oxazole], the EC50 was more than 10000 nM in experiment [1] (setting [3]) and 3.5 nM in experiment [2] (setting [4]).
The like results for `Cc1nc(C2(C)COC(c3cc(OCC(F)(F)F)c(C4CC4)cn3)=N2)no1` (stereo not shown) [Example 111, 3-[2-[5-cyclopropyl-4-(2,2,2-trifluoroethoxy)pyridin-2-yl]-4-methyl-5H-1,3-oxazol-4-yl]-5-methyl-1,2,4-oxadiazole] were, in that order, more than 10000 nM and 57.6 nM.
On to `CCc1nc(-c2cc(OCC3CC3)c(C3CC3)cn2)no1` [Example 13, 3-[5-cyclopropyl-4-(cyclopropylmethoxy)pyridin-2-yl]-5-ethyl-1,2,4-oxadiazole], for which the EC50 was more than 10000 nM in experiment [1] (setting [3]) and 31.9 nM in experiment [2] (setting [4]).
The like results for `CC1(c2nc(-c3cc(OCC(F)(F)F)c(C4CC4)cn3)no2)COC1` [Example 38, 3-[5-cyclopropyl-4-(2,2,2-trifluoroethoxy)pyridin-2-yl]-5-(3-methyloxetan-3-yl)-1,2,4-oxadiazole] were, in that order, more than 10000 nM and 128 nM.
`CC(C)(C)c1nc(-c2cc(OC3COC3)c(C3CC3)cn2)no1` [Example 54, 5-tert-butyl-3-[5-cyclopropyl-4-(oxetan-3-yloxy)pyridin-2-yl]-1,2,4-oxadiazole]: the EC50 in experiment [1] (setting [3]) was more than 10000 nM; in experiment [2] (setting [4]) it was 33.1 nM.
The like results for `CC(C)(C)c1nc(-c2cc(OC3CCOCC3)c(C3(F)COC3)cn2)no1` [Example 109, 5-tert-butyl-3-[5-(3-fluorooxetan-3-yl)-4-(oxan-4-yloxy)pyridin-2-yl]-1,2,4-oxadiazole] were, in that order, more than 10000 nM and 162 nM.
As for `CN1CCCC(Oc2cc(-c3noc(C(C)(C)C)n3)ncc2C2CC2)C1` (stereo not shown) [Example 99, 5-tert-butyl-3-[5-cyclopropyl-4-(1-methylpiperidin-3-yl)oxypyridin-2-yl]-1,2,4-oxadiazole], the EC50 in experiment [1] (setting [3]) is more than 10000 nM; in experiment [2] (setting [4]), 317 nM.
The like results for `Cc1cc(COc2cc(-c3noc(C(C)(C)C)n3)ncc2C2CC2)no1` [Example 107, 5-tert-butyl-3-[5-cyclopropyl-4-[(5-methyl-1,2-oxazol-3-yl)methoxy]pyridin-2-yl]-1,2,4-oxadiazole] were, in that order, more than 10000 nM and 95.8 nM.
For `CC(C)(C)c1nc(-c2cc(OCC3CCCO3)c(C3CC3)cn2)no1` (stereo not shown) [Example 56, 5-tert-butyl-3-[5-cyclopropyl-4-(oxolan-2-ylmethoxy)pyridin-2-yl]-1,2,4-oxadiazole], the EC50 is more than 10000 nM in experiment [1] (setting [3]) and 44.7 nM in experiment [2] (setting [4]).
Turning to `CC1(c2nc(-c3cc(OCC(F)(F)F)c(N4CC(F)(F)C4)cn3)no2)COC1` [Example 47, 3-[5-(3,3-difluoroazetidin-1-yl)-4-(2,2,2-trifluoroethoxy)pyridin-2-yl]-5-(3-methyloxetan-3-yl)-1,2,4-oxadiazole], the EC50 was more than 10000 nM in experiment [1] (setting [3]) and 166 nM in experiment [2] (setting [4]).
On to `CCN(CC)CC(C)Oc1cc(-c2noc(C(C)(C)C)n2)ncc1C1CC1` (stereo not shown) [Example 101, 2-[2-(5-tert-butyl-1,2,4-oxadiazol-3-yl)-5-cyclopropylpyridin-4-yl]oxy-N,N-diethylpropan-1-amine], for which the EC50 in experiment [1] (setting [3]) is more than 10000 nM; in experiment [2] (setting [4]), 142 nM.
For `NC(=O)C1(c2nc(-c3cc(OCC4CC4)c(C4CC4)cn3)no2)CC1` [Example 25, 1-[3-[5-cyclopropyl-4-(cyclopropylmethoxy)pyridin-2-yl]-1,2,4-oxadiazol-5-yl]cyclopropane-1-carboxamide] the same measures were more than 10000 nM and 135 nM.
For `c1ccc(Cc2noc(-c3cc(OCC4CC4)c(C4CC4)cn3)n2)cc1` [Example 5, 3-benzyl-5-[5-cyclopropyl-4-(cyclopropylmethoxy)pyridin-2-yl]-1,2,4-oxadiazole], the EC50 is more than 10000 nM in experiment [1] (setting [3]) and 69.1 nM in experiment [2] (setting [4]).
With `CN1CCC(Oc2cc(-c3noc(C(C)(C)C)n3)ncc2C2CC2)C1` (stereo not shown) [Example 59, 5-tert-butyl-3-[5-cyclopropyl-4-(1-methylpyrrolidin-3-yl)oxypyridin-2-yl]-1,2,4-oxadiazole], the results for the EC50 in experiment [1] (setting [3]) and in experiment [2] (setting [4]) were more than 10000 nM and 48.1 nM, respectively.
In the case of `c1c(-c2noc(C3CC3)n2)ncc(C2CC2)c1OCC1CC1` [Example 9, 5-cyclopropyl-3-[5-cyclopropyl-4-(cyclopropylmethoxy)pyridin-2-yl]-1,2,4-oxadiazole], the EC50 in experiment [1] is more than 10000 nM; in experiment [2] it was 15.8 nM.
For `CN1CCC[C@H]1COc1cc(-c2noc(C(C)(C)C)n2)ncc1C1CC1` [Example 57, 5-tert-butyl-3-[5-cyclopropyl-4-[[(2S)-1-methylpyrrolidin-2-yl]methoxy]pyridin-2-yl]-1,2,4-oxadiazole], the EC50 in experiment [1] (setting [3]) was more than 10000 nM; in experiment [2] (setting [4]) it was 13.4 nM.
As to `FC(F)(F)COc1cc(-c2nc(C3CC3)no2)ncc1N1CC(F)(F)C1` [Example 15, 3-cyclopropyl-5-[5-(3,3-difluoroazetidin-1-yl)-4-(2,2,2-trifluoroethoxy)pyridin-2-yl]-1,2,4-oxadiazole], the EC50 in experiment [1] (setting [3]) is more than 10000 nM; in experiment [2] (setting [4]), 19.8 nM.
`CC(C)(C)c1nc(-c2cc(OC3CCOCC3)c(C3CC3)cn2)no1` [Example 63, 5-tert-butyl-3-[5-cyclopropyl-4-(oxan-4-yloxy)pyridin-2-yl]-1,2,4-oxadiazole]: the EC50 in experiment [1] (setting [3]) is more than 10000 nM; in experiment [2] (setting [4]) it was 4.3 nM.
Consider `Cc1nc(COc2cc(-c3noc(C(C)(C)C)n3)ncc2C2CC2)c(C)o1` [Example 106, 5-tert-butyl-3-[5-cyclopropyl-4-[(2,5-dimethyl-1,3-oxazol-4-yl)methoxy]pyridin-2-yl]-1,2,4-oxadiazole], for which the values for the EC50 in experiment [1] (setting [3]) and in experiment [2] (setting [4]) were more than 10000 nM and 128 nM, respectively.
On to `CCOCCOc1cc(-c2noc(C(C)(C)C)n2)ncc1C1CC1` [Example 83, 5-tert-butyl-3-[5-cyclopropyl-4-(2-ethoxyethoxy)pyridin-2-yl]-1,2,4-oxadiazole], for which the EC50 in experiment [1] (setting [3]) is more than 10000 nM; in experiment [2] (setting [4]) it was 30.1 nM.
As for `FC(F)(F)COc1cc(C2=NC3(CCCCC3)CO2)ncc1C1CC1` [Example 31, 2-[5-cyclopropyl-4-(2,2,2-trifluoroethoxy)pyridin-2-yl]-3-oxa-1-azaspiro[4.5]dec-1-ene], the EC50 in experiment [1] (setting [3]) was more than 10000 nM; in experiment [2] (setting [4]), 19.4 nM.
For `CC1(c2nc(-c3cc(OCC(F)(F)F)c(N4CC(F)(F)C4)cn3)no2)CC1` [Example 50, 3-[5-(3,3-difluoroazetidin-1-yl)-4-(2,2,2-trifluoroethoxy)pyridin-2-yl]-5-(1-methylcyclopropyl)-1,2,4-oxadiazole] the same measures were more than 10000 nM and 45.8 nM.
For `CN1CCCCC1COc1cc(-c2noc(C(C)(C)C)n2)ncc1C1CC1` (stereo not shown) [Example 97, 5-tert-butyl-3-[5-cyclopropyl-4-[(1-methylpiperidin-2-yl)methoxy]pyridin-2-yl]-1,2,4-oxadiazole] the same measures were more than 10000 nM and 19 nM.
For `CC(C)(C)c1nc(-c2cc(OCC3CC3)c(N3CCC34COC4)cn2)no1` [Example 35, 1-[6-(5-tert-butyl-1,2,4-oxadiazol-3-yl)-4-(cyclopropylmethoxy)pyridin-3-yl]-6-oxa-1-azaspiro[3.3]heptane] the same measures were more than 10000 nM and 32.8 nM.
`CC1(c2nc(-c3cc(OCC4CC4)c(C4CC4)cn3)no2)COC1` [Example 28, 3-[5-cyclopropyl-4-(cyclopropylmethoxy)pyridin-2-yl]-5-(3-methyloxetan-3-yl)-1,2,4-oxadiazole]: the EC50 in experiment [1] (setting [3]) was more than 10000 nM; in experiment [2] (setting [4]), 16 nM.
